From the supplement of paper PMC10627819

How the values were obtained:
B. subtilis 168 [1] = assay: fitness (endpoint OD595 vs no drug) (fraction); higher = more growth
In short: (§1)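 With the first reading as background, OD595 was measured every 30 min for 14 h in 384-well plates kept at 37 °C and inoculated at OD595 0.01. TSB, LB Lennox or CY was the medium. Fitness is the optical density at the transition into stationary phase divided by the robust mean of no-drug control wells, with a cap of 1.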

S. pneumoniae D39V [2] = assay: as above
In short: as §1

B. subtilis 168 [3] = assay: Bliss interaction score (quartile over a dose matrix) (fitness difference); higher = more antagonism (negative = synergy)
In short: (§2)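 Quartiles summarise the Bliss score over technical, biological and donor/recipient replicates, where the score is observed minus expected fitness under a product model. Expected fitness uses single-drug values inferred from combination data. Fitness is OD595 at entry into stationary phase over the plate's robust no-drug mean, capped at 1.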

S. aureus DSM 20231 = assay: as above
In short: as §2

S. aureus Newman = assay: as above
In short: as §2

S. pneumoniae D39V [4] = assay: as above
In short: as §2
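Wherever Bliss interaction score (quartile over a dose matrix) is given: first quartile when negative (synergy) and third quartile when positive (antagonism).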

CCC[C@@H]1C[C@@H](C(=O)N[C@@H]([C@H]2O[C@H](SC)[C@H](O)[C@@H](O)[C@H]2O)[C@H](C)Cl)N(C)C1 [Clindamycin] + C[C@H]1c2cccc(O)c2C(=O)C2=C(O)[C@]3(O)C(=O)C(C(N)=O)=C(O)[C@@H](N(C)C)[C@@H]3[C@@H](O)[C@@H]21 [Doxycycline]
fitness, one replicate
Settings | partner 0.003875 µg/mL | partner 0.00775 µg/mL | partner 0.02 µg/mL | partner 0.031 µg/mL | partner 0.04 µg/mL | partner 0.062 µg/mL | partner 0.08 µg/mL
B. subtilis 168 [1], first compound 0.0039 µg/mL | – | – | 0.97 | – | 0.891 | – | 0.677
B. subtilis 168 [1], first compound 0.0078 µg/mL | – | – | 0.831 | – | 0.781 | – | 0.515
B. subtilis 168 [1], first compound 0.0156 µg/mL | – | – | 0.824 | – | 0.743 | – | 0.235
S. pneumoniae D39V [2], first compound 0.015 µg/mL | 0.934 | 0.931 | – | 0.803 | – | 0.567 | –
S. pneumoniae D39V [2], first compound 0.03 µg/mL | 0.778 | 0.777 | – | 0.588 | – | 0.359 | –
S. pneumoniae D39V [2], first compound 0.06 µg/mL | 0.714 | 0.743 | – | 0.405 | – | 0.163 | –

Settings | fitness
B. subtilis 168 [1], first compound 0.0625 µg/mL, partner 0.04 µg/mL | 0.406
B. subtilis 168 [1], first compound 0.0625 µg/mL, partner 0.08 µg/mL | 0.0499
B. subtilis 168 [1], first compound 0.125 µg/mL, partner 0.02 µg/mL | 0.389
B. subtilis 168 [1], first compound 0.125 µg/mL, partner 0.04 µg/mL | 0.164
B. subtilis 168 [1], first compound 0.125 µg/mL, partner 0.08 µg/mL | 0.0428
B. subtilis 168 [1], first compound 0.25 µg/mL, partner 0.02 µg/mL | 0.293
B. subtilis 168 [1], first compound 0.25 µg/mL, partner 0.04 µg/mL | 0.11
B. subtilis 168 [1], first compound 0.25 µg/mL, partner 0.08 µg/mL | 0.0404
S. pneumoniae D39V [2], first compound 0.0125 µg/mL, partner 0.0155 µg/mL | 0.451
S. pneumoniae D39V [2], first compound 0.0125 µg/mL, partner 0.031 µg/mL | 0.35
S. pneumoniae D39V [2], first compound 0.0125 µg/mL, partner 0.062 µg/mL | 0.114
S. pneumoniae D39V [2], first compound 0.015 µg/mL, partner 0.0155 µg/mL | 0.876
S. pneumoniae D39V [2], first compound 0.025 µg/mL, partner 0.0155 µg/mL | 0.28
S. pneumoniae D39V [2], first compound 0.025 µg/mL, partner 0.031 µg/mL | 0.245
S. pneumoniae D39V [2], first compound 0.025 µg/mL, partner 0.062 µg/mL | 0.078
S. pneumoniae D39V [2], first compound 0.03 µg/mL, partner 0.0155 µg/mL | 0.745
S. pneumoniae D39V [2], first compound 0.05 µg/mL, partner 0.0155 µg/mL | 0.0637
S. pneumoniae D39V [2], first compound 0.05 µg/mL, partner 0.031 µg/mL | 0.0376
S. pneumoniae D39V [2], first compound 0.05 µg/mL, partner 0.062 µg/mL | 0.073
S. pneumoniae D39V [2], first compound 0.06 µg/mL, partner 0.0155 µg/mL | 0.577

Settings | Bliss interaction score
B. subtilis 168 [3] | -0.184
S. aureus DSM 20231 | -0.0562
S. aureus Newman | -0.135
S. pneumoniae D39V [4] | -0.151

O=C(O[C@@H]1Cc2c(O)cc(O)cc2O[C@@H]1c1cc(O)c(O)c(O)c1)c1cc(O)c(O)c(O)c1 [EGCG] + CCC(C)C1C(=O)NC(=C)C(=O)NC(C(=O)NC(CSCC(C(=O)N1)NC(=O)/C(=C/C)/NC(=O)C(C(C)CC)N)C(=O)NC2C(SCC(NC(=O)CNC(=O)C3CCCN3C2=O)C(=O)NC(CCCCN)C(=O)NC4C(SCC(NC(=O)CNC(=O)C(NC(=O)C(NC(=O)C(NC(=O)CNC4=O)C)CC(C)C)CCSC)C(=O)NC(CC(=O)N)C(=O)NC(CCSC)C(=O)NC(CCCCN)C(=O)NC5C(SCC6C(=O)NC(C(=O)NC(CSC(C(C(=O)N6)NC(=O)C(NC5=O)C)C)C(=O)NC(CO)C(=O)NC(C(C)CC)C(=O)NC(CC7=CN=CN7)C(=O)NC(C(C)C)C(=O)NC(=C)C(=O)NC(CCCCN)C(=O)O)CC8=CN=CN8)C)C)C)CC(C)C [Nisin]
fitness, main component drawn
Settings | first compound 6.25 µg/mL | first compound 12.5 µg/mL | first compound 25 µg/mL | first compound 50 µg/mL
B. subtilis 168 [1], partner 0.5 µg/mL | 0.853 | 0.761 | – | –
B. subtilis 168 [1], partner 1 µg/mL | 0.813 | 0.619 | – | –
B. subtilis 168 [1], partner 2 µg/mL | 0.432 | 0.308 | 0.21 | –
S. pneumoniae D39V [2], partner 0.4275 µg/mL | – | 0.965 | 0.967 | 0.982
S. pneumoniae D39V [2], partner 0.855 µg/mL | – | 0.989 | ≥ 1 | ≥ 1
S. pneumoniae D39V [2], partner 1.6 µg/mL | – | 0.0156 | 0.0307 | –
S. pneumoniae D39V [2], partner 1.71 µg/mL | – | 0.105 | 0.131 | 0.244
S. pneumoniae D39V [2], partner 3.2 µg/mL | – | 0.0612 | – | –
S. pneumoniae D39V [2], partner 6.4 µg/mL | – | 0.08 | 0.046 | 0.0006

fitness, B. subtilis 168 [1], one replicate, main component drawn
Settings | partner 1.25 µg/mL | partner 1.6 µg/mL | partner 2.5 µg/mL | partner 3.2 µg/mL | partner 4 µg/mL | partner 5 µg/mL | partner 6.4 µg/mL | partner 8 µg/mL | partner 16 µg/mL
first compound 6.25 µg/mL | ≥ 1 | 0.616 | 0.682 | 0.0933 | 0.0068 | 0.154 | 0.0135 | 0.069 | 0.0181
first compound 12.5 µg/mL | 0.625 | 0.199 | 0.282 | 0.0301 | 0.0461 | 0.0396 | 0.0233 | 0.0351 | 0.0262
first compound 25 µg/mL | 0.247 | 0.0657 | 0.0742 | 0.0436 | 0.0163 | 0.0343 | 0.0151 | 0.044 | 0.0094

main component drawn
Settings | Bliss interaction score
B. subtilis 168 [3] | -0.0674
S. aureus DSM 20231 | 0.165
S. aureus Newman | 0.134
S. pneumoniae D39V [4] | 0.11

O=C(O[C@@H]1Cc2c(O)cc(O)cc2O[C@@H]1c1cc(O)c(O)c(O)c1)c1cc(O)c(O)c(O)c1 [EGCG] + CN(C)C(=O)C(CCN1CCC(O)(c2ccc(Cl)cc2)CC1)(c1ccccc1)c1ccccc1 [Loperamide]
fitness
Settings | first compound 6.25 µg/mL | first compound 12.5 µg/mL | first compound 25 µg/mL | first compound 50 µg/mL
B. subtilis 168 [1], partner 25 µg/mL | – | – | 0.0734 | –
B. subtilis 168 [1], partner 50 µg/mL | – | 0.0521 | 0.0237 | –
B. subtilis 168 [1], partner 100 µg/mL | 0.0302 | 0.0337 | 0.0599 | –
S. pneumoniae D39V [2], partner 17.14 µg/mL | – | 0.91 | 0.921 | 0.965
S. pneumoniae D39V [2], partner 20 µg/mL | – | 0.988 | ≥ 1 | 0.991
S. pneumoniae D39V [2], partner 34.28 µg/mL | – | 0.895 | 0.982 | 0.992
S. pneumoniae D39V [2], partner 40 µg/mL | – | 0.984 | ≥ 1 | ≥ 1

S. pneumoniae D39V [2], partner 68.57 µg/mL, one replicate
Settings | fitness
first compound 12.5 µg/mL | 0.491
first compound 25 µg/mL | 0.958
first compound 50 µg/mL | 0.891

Settings | Bliss interaction score
B. subtilis 168 [3] | -0.097
S. aureus DSM 20231 | 0.183
S. aureus Newman | -0.0758
S. pneumoniae D39V [4] | 0.0701
